Test results published in publication PMC3983352 (Journal of Medicinal Chemistry, 2014).

Tests used:
wild-type HDAC1 = wild-type HDAC1 (Homo sapiens, UniProt Q13547); assay: Acetate inhibition assay; assay type: biochemical; conditions: at least three independent trials, standard error
HDAC1 F205Y = HDAC1 F205Y (Homo sapiens, UniProt Q13547, F205Y); assay: Acetate inhibition assay; assay type: biochemical
HDAC1 Y23A = HDAC1 Y23A (Homo sapiens, UniProt Q13547, Y23A); assay: Acetate inhibition assay; assay type: biochemical
HDAC1 Y24A = HDAC1 Y24A (Homo sapiens, UniProt Q13547, Y24A); assay: Acetate inhibition assay; assay type: biochemical
HDAC1 R34A = HDAC1 R34A (Homo sapiens, UniProt Q13547, R34A); assay: Acetate inhibition assay; assay type: biochemical
HDAC1 R36A = HDAC1 R36A (Homo sapiens, UniProt Q13547, R36A); assay: Acetate inhibition assay; assay type: biochemical
HDAC1 C151A = HDAC1 C151A (Homo sapiens, UniProt Q13547, C151A); assay: Acetate inhibition assay; assay type: biochemical
[1] = test system: recombinant HDAC8 wild type; conditions: acetate inhibition; cited from earlier work
HDAC8 R37A = HDAC8 R37A vs HDAC8 wild type; cited from earlier work

HDAC1 Y24A, sequence (Q13547 whole entry Y24A): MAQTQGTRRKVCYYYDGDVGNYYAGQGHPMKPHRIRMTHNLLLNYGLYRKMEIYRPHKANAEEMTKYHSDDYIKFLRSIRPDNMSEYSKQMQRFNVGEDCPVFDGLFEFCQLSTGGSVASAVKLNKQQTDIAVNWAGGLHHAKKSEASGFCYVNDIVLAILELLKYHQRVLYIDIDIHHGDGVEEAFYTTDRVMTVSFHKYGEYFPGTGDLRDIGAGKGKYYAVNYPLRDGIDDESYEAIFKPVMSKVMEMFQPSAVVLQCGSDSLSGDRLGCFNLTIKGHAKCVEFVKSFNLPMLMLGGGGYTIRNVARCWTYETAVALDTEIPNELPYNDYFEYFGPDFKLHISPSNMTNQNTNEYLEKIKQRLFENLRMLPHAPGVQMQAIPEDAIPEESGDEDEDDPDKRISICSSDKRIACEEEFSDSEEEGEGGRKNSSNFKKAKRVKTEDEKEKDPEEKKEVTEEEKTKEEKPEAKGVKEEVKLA
HDAC1 C151A, sequence (Q13547 whole entry C151A): as the sequence (Q13547 whole entry Y24A) above, with A24Y, C151A counted along it
HDAC1 R36A, sequence (Q13547 whole entry R36A): as the sequence (Q13547 whole entry Y24A) above, with A24Y, R36A counted along it
HDAC1 Y23A, sequence (Q13547 whole entry Y23A): as the sequence (Q13547 whole entry Y24A) above, with Y23A, A24Y counted along it
HDAC1 R34A, sequence (Q13547 whole entry R34A): as the sequence (Q13547 whole entry Y24A) above, with A24Y, R34A counted along it
HDAC1 F205Y, sequence (Q13547 whole entry F205Y): as the sequence (Q13547 whole entry Y24A) above, with A24Y, F205Y counted along it
wild-type HDAC1, sequence (Q13547 whole entry): as the sequence (Q13547 whole entry Y24A) above, with A24Y counted along it

IC50 (wild-type HDAC1): 7.2 ± 0.54 mM | IC50 (HDAC1 F205Y): 8 ± 1.5 mM | fold reduction in acetate inhibition compared to the wild type (HDAC1 Y23A; HDAC1 Y23A vs wild type): roughly 3 fold | IC50 (HDAC1 Y23A; acetate inhibition, HDAC1 Y23A): 21 ± 1.5 mM | fold reduction in acetate inhibition compared to the wild type (HDAC1 Y24A; HDAC1 Y24A vs wild type): roughly 3 fold | IC50 (HDAC1 Y24A; acetate inhibition, HDAC1 Y24A): 19 ± 1.1 mM | fold reduction in acetate inhibition compared to the wild type (HDAC1 R34A; HDAC1 R34A vs wild type): roughly 3 fold | IC50 (HDAC1 R34A; acetate inhibition, HDAC1 R34A): 21 ± 1.6 mM | fold reduction in acetate inhibition compared to the wild type (HDAC1 R36A; HDAC1 R36A vs wild type): roughly 2 fold | IC50 (HDAC1 R36A; acetate inhibition, HDAC1 R36A): 16 ± 1.3 mM | fold reduction in acetate inhibition compared to the wild type (HDAC1 C151A; HDAC1 C151A vs wild type): roughly 2 fold | IC50 (HDAC1 C151A; acetate inhibition, HDAC1 C151A): 13 ± 1.1 mM
SMILES: CC(=O)[O-].[Na+] [acetate, sodium acetate]
IC50 [1]: 2.5 mM | fold reduction of acetate inhibition compared to wild type (HDAC8 R37A): 160 fold
